Here are results for eleven compounds from US20220064138A1, “MACROLIDE BREFELDIN A ESTER DERIVATIVES AND USE THEREOF” (OCEAN UNIVERSITY OF CHINA, priority 2019, published 2022).

A word on the IC50: it is the concentration that gives 50% inhibition. The low end stands for inhibition by little substance, the high end for a need for much substance. By solubility is commonly meant the dissolved amount per volume that the medium holds.

In brackets after ≈: the same amount, converted by molar mass.

For one data set, the system named is Kunming breed mice. Briefly: Toxicity test after intraperitoneal administration to mice. It is filed as in vivo. Particulars: 14 d; for Deaths: high and low doses (BFA effective amount conversion), ip., mice; for Mental condition of the animals after administration / Results of anatomy: abnormality in organs: male, Kunming, mouse, in vivo, ip. Here is the method: Objective: Observation of toxic effects of compounds after intraperitoneally administration (ip.) to mice
1) Agents: Compounds disclosed herein were formulated to a suitable concentration.
2) Animals: Kunming breed mice, weight 18-22 g, male. Provided by Jinan Pengyue Laboratory Animal Breeding Co., Ltd. Animal license number: SCXK (Shandong 20140007)
Method: Kunming breed mice, were randomly grouped by weight, 6 mice per group, namely normal control group, BFA high and low dose groups (100 mg/kg and 50 mg/kg, respectively), and high and low dose groups of some compounds disclosed herein (BFA effective amount conversion). […] After 14 d of continuous administration, all the animals were weighed, and the animals were executed to observe whether there were any abnormalities in the organs.

Data set [1] relates to Human cervical cancer Hela cells. Briefly: Cell proliferation assay (CCK-8). It is filed as cell-based. As to conditions: 72 h. An excerpt: (§1) CCK-8 method: The CCK-8 method is a highly sensitive, non-radioactive colorimetric assay for the determination of the number of viable cells in cell proliferation or cytotoxicity assays. The orange formazan dye produced by the bioreduction of CCK-8 by intracellular dehydrogenase is soluble in the cell culture medium, and the amount of formazan dye produced is proportional to the number of living cells. The kit used in this method is the tetrazolium salt-WST-8 (2-(2-methoxy-4-nitrophenyl)-3-(4-nitrophenyl)-5-(2,4-disulfophenyl)-2H-tetrazolium monosodium salt) developed by Dojindo Chemical Research Institute (Dojindo), which is capable of being reduced to a water-soluble formazan dye in the presence of the electronic carrier 1-Methoxy PMS.
(§2) Human cervical cancer Hela cells, pancreatic cancer PANC-1 cells, esophageal cancer Eca-109 cells, human leukemia K562 cells, human lung cancer A549 cells, human liver cancer HepG2 cells, human gastric cancer MKN-45 cells, human breast cancer MCF7 cells were cultured in DMEM medium containing 10% FBS (fetal bovine serum), 100 U/mL penicillin and 100 μg/ml streptomycin. Hepatocellular carcinoma cells Bel-7402 were cultured in RPMI-1640 medium containing 10% FBS (fetal bovine serum), 100 U/ml penicillin and 100 μg/ml streptomycin. All cells were placed in a cell culture incubator at 37° C. with 5% CO2. Cells fluid was changed every 3-5 days, and after 80% cell fusion, trypsin digestion and passaging were performed to keep the cells in good logarithmic growth phase.
(§3) All the samples to be tested were dissolved in DMSO.
(§4) Cells in logarithmic growth phase were inoculated in 96-well plates with 5000 cells/well respectively, and after 24 h of incubation, samples were added (final concentrations as shown in the table), and biplicate wells were set up for each sample. The amount of solvent of DMSO was not higher than 2‰. After 72 h, 10 μL of CCK-8 solution was added to each well and incubated for 1.5˜3 h at 37° C. The OD value at 450 nm was measured on an plate reader.
(§5) Inhibition rate (%)=(1−[(OD450 dosed well−OD450 blank well)/(OD450 control well−OD450 blank well)])×100%
(§6) The fitted IC50 values were calculated using the log (inhibitor) vs. response-Variable slop analysis method in GraphPad Prism software.

The subject of data set [2] is esophageal cancer Eca-109 cells. Kind of data set: Cell proliferation assay (CCK-8). It is filed as cell-based. Particulars: Homo sapiens, Eca-109, 72 h.
Excerpt: as §1, §2, §3, §4, §5, §6

In data set [3] the test system is human leukemia K562 cells. Briefly: Cell proliferation assay (CCK-8). It is filed as cell-based. As to conditions: K562, 72 h.
Excerpt: as §1, §2, §3, §4, §5, §6

Data set [4] relates to human liver cancer HepG2 cells. Briefly: Cell proliferation assay (CCK-8). It is filed as cell-based. Particulars: HepG2, 72 h.
Excerpt: as §1, §2, §3, §4, §5, §6

For data set [5], the system named is human breast cancer MCF7 cells. Kind of data set: Cell proliferation assay (CCK-8). Particulars: MCF7, 72 h. It is filed as cell-based.
Excerpt: as §1, §2, §3, §4, §5, §6

Data set [6] deals with pancreatic cancer PANC-1 cells. Kind of data set: Cell proliferation assay (CCK-8). Particulars: Homo sapiens, PANC-1, 72 h. Format: cell-based.
Excerpt: as §1, §2, §3, §4, §5, §6

In data set [7] the test system is human lung cancer A549 cells. Briefly: Cell proliferation assay (CCK-8). It is filed as cell-based. Particulars: A549, 72 h.
Excerpt: as §1, §2, §3, §4, §5, §6

The test system of data set [8] is human gastric cancer MKN-45 cells. Kind of data set: Cell proliferation assay (CCK-8). It is filed as cell-based. Particulars: MKN-45, 72 h.
Excerpt: as §1, §2, §3, §4, §5, §6

Data set [9] is described as follows: Solubility test (shaking 24 h at 37° C., HPLC).
Method: Methods: Excess BFA and the compounds disclosed herein were added to 10 mL of three solvents, methanol, acetone and 5% DMSO+95% H2O, respectively, and shaken on a shaker at 37° C. at 100 r/min for 24 h. After 24 h, the samples were centrifuged at 15 000 r/min for 15 min to remove the undissolved compounds. The supernatant was filtered using a 0.45 μm membrane filter. The supernatant was appropriately diluted with methanol and contents of the compounds were determined by HPLC method to calculate the solubility.

`C[C@H]1CCC/C=C/[C@@H]2C[C@H](OC(=O)/C=C/c3ccc(N(C)C)cc3)C[C@H]2[C@H](O)/C=C/C(=O)O1` [Compound 10a, 7-O-(4-dimethylaminocinnamic acid)acyl BFA]: the Deaths result with Kunming breed mice is listed as “no deaths”. The “Mental condition of the animals after administration” value (from here on “Mental condition of the animals”) in the data set on Kunming breed mice is “good mental condition”. Also, the “Results of anatomy: abnormality in organs” value with Kunming breed mice is “no significant abnormality in all organs”. For the same compound, the IC50 in [1] was in the range of 1 to 10 µM; in [2], 1 to 10 µM; in data set [3] it was 0.1 to 1 µM; in data set [4] it was 1 to 10 µM; in data set [5], 0.1 to 1 µM; in data set [6] it was 1 to 10 µM. Further, the concentration for half-maximal inhibition (IC50) in data set [7] and in data set [8] was 0.1 to 1 µM throughout. Moreover, the solubility at 24 h is 0.75 ± 1.6 mg/mL in data set [9] (5% DMSO + 95% H2O), 25.6 ± 1.74 mg/mL (≈ 56.5 mM) in data set [9] (acetone) and 25.3 ± 4.35 mg/mL (≈ 55.7 mM) in data set [9] (methanol).

For `C[C@H]1CCC/C=C/[C@@H]2C[C@H](O)C[C@H]2[C@H](OC(=O)/C=C/c2cccnc2)/C=C/C(=O)O1` [Compound 16b], the Deaths entry in the data set on Kunming breed mice is “no deaths”. The “Mental condition of the animals” value with Kunming breed mice was “good mental condition”. The “Results of anatomy: abnormality in organs” value in the data set with Kunming breed mice is on record as “no significant abnormality in all organs”. The IC50 is 0.1 to 1 µM in data set [1]; 0.1 to 1 µM in [2]; 0.1 to 1 µM in [3]; less than 0.1 µM in data set [4]; 0.1 to 1 µM in data set [5]; less than 0.1 µM in [6]. In addition, the IC50 in data set [7] and in data set [8] was 0.1 to 1 µM in each case.

As to `C[C@H]1CCC/C=C/[C@@H]2C[C@H](O)C[C@H]2[C@H](OC(=O)/C=C/c2cccc(F)c2)/C=C/C(=O)O1` [Compound 1b, 4-O-(3-fluorocinnamic acid)acyl BFA], the Deaths entry in the data set on Kunming breed mice is recorded as “no deaths”. Moreover, in the data set on Kunming breed mice, the “Mental condition of the animals” value is listed as “good mental condition”. Besides, in the data set with Kunming breed mice, the “Results of anatomy: abnormality in organs” value is recorded as “no significant abnormality in all organs”. Moreover, the IC50 in data set [1], in data set [2], in data set [3], in data set [4], in [5] and in data set [6] was 0.1 to 1 µM throughout. The IC50 in [7] and in [8] was 0.1 to 1 µM throughout. Besides, the solubility at 24 h amounted to 0.32 ± 0.05 mg/mL in data set [9] (5% DMSO + 95% H2O), 21 ± 1.42 mg/mL (≈ 49.1 mM) in [9] (acetone) and 21.1 ± 1.32 mg/mL (≈ 49.3 mM) in [9] (methanol).

In the case of `C[C@H]1CCC/C=C/[C@@H]2C[C@H](OC(=O)/C=C/c3cccnc3)C[C@H]2[C@H](OC(=O)/C=C/c2cccnc2)/C=C/C(=O)O1` [Compound 16c], in the data set on Kunming breed mice, the Deaths entry is “no deaths”. The “Mental condition of the animals” value in the data set with Kunming breed mice was “good mental condition”. Moreover, in the data set with Kunming breed mice, the “Results of anatomy: abnormality in organs” value is “no significant abnormality in all organs”. The IC50 is 1 to 10 µM in [1]; 1 to 10 µM in data set [2]; 0.1 to 1 µM in data set [3]; 0.1 to 1 µM in data set [4]; 1 to 10 µM in [5]; 0.1 to 1 µM in data set [6]. Also, the IC50 lay within 0.1 to 1 µM in data set [7] and 1 to 10 µM in data set [8].

With `C[C@H]1CCC/C=C/[C@@H]2C[C@H](OC(=O)/C=C/c3ccccn3)C[C@H]2[C@H](OC(=O)/C=C/c2ccccn2)/C=C/C(=O)O1` [Compound 15c], the IC50 in data set [1] lay in the range of 1 to 10 µM; in data set [2], 1 to 10 µM; in [3], 0.1 to 1 µM; in [4] it was 0.1 to 1 µM; in data set [5] it was 0.1 to 1 µM; in [6], 0.1 to 1 µM. Moreover, the IC50 in [7] was 0.1 to 1 µM; in data set [8] it was 1 to 10 µM.

With `Cc1ccc(/C=C/C(=O)O[C@@H]2C[C@@H]3[C@H](/C=C/CCC[C@H](C)OC(=O)/C=C/[C@H]3OC(=O)/C=C/c3ccc(C)cc3)C2)cc1` [Compound 7c, 4,7-O-bis(4-methylcinnamic acid)acyl BFA], the IC50 in [1] is 1 to 10 µM; in data set [2], 0.1 to 1 µM; in data set [3], 1 to 10 µM; in data set [4], 1 to 10 µM; in data set [5] it was 1 to 10 µM; in data set [6] it was 1 to 10 µM. Besides, the figures for the IC50 in data set [7] and in data set [8] were 1 to 10 µM and 0.1 to 1 µM, respectively.

`C[C@H]1CCC/C=C/[C@@H]2C[C@H](OC(=O)/C=C/c3ccncc3)C[C@H]2[C@H](OC(=O)/C=C/c2ccncc2)/C=C/C(=O)O1` [Compound 14c]: the IC50 was 1 to 10 µM in data set [1]; 1 to 10 µM in [2]; 0.1 to 1 µM in data set [3]; 0.1 to 1 µM in data set [4]; 1 to 10 µM in [5]; 1 to 10 µM in [6]. Further, the IC50 in [7] and in data set [8] was 0.1 to 1 µM each time.

Regarding `COc1cc(/C=C/C(=O)O[C@@H]2C[C@H]3[C@H](O)/C=C/C(=O)O[C@@H](C)CCC/C=C/[C@@H]3C2)cc(OC)c1OC` [Compound 11a, 7-O-(3,4,5-trimethoxycinnamic acid)acyl BFA], the IC50 lay in the range of 1 to 10 µM in data set [1]; 1 to 10 µM in data set [2]; 0.1 to 1 µM in [3]; 0.1 to 1 µM in [4]; 0.1 to 1 µM in [5]; 0.1 to 1 µM in data set [6]. Further, the IC50 in [7] and in [8] was 0.1 to 1 µM each time.

`C[C@H]1CCC/C=C/[C@@H]2C[C@H](OC(=O)/C=C/c3ccc(C(F)(F)F)cc3)C[C@H]2[C@H](O)/C=C/C(=O)O1` [Compound 13a, 7-O-(4-trifluoromethylcinnamic acid)acyl BFA]: the half-inhibitory concentration (IC50) in data set [1], in data set [2], in [3], in data set [4], in data set [5] and in data set [6] was 0.1 to 1 µM in each case. Further, the IC50 in [7] and in data set [8] was 0.1 to 1 µM throughout.

As to `C[C@H]1CCC/C=C/[C@@H]2C[C@H](OC(=O)/C=C/c3ccncc3)C[C@H]2[C@H](O)/C=C/C(=O)O1` [Compound 14a, 7-O-(3-(pyridine-4-yl)acrylic acid)acyl BFA], the IC50 in data set [1] is 0.1 to 1 µM; in data set [2] it was 1 to 10 µM; in [3], 0.1 to 1 µM; in data set [4], less than 0.1 µM; in data set [5] it was 0.1 to 1 µM; in data set [6] it was less than 0.1 µM. Moreover, the IC50 in data set [7] and in data set [8] was 0.1 to 1 µM in each case.

`C[C@H]1CCC/C=C/[C@@H]2C[C@H](O)C[C@H]2[C@H](OC(=O)/C=C/c2ccccc2F)/C=C/C(=O)O1` [Compound 2b, 4-O-(2-fluorocinnamic acid)acyl BFA]: the IC50 in [1] was 1 to 10 µM; in [2], 1 to 10 µM; in [3], 0.1 to 1 µM; in data set [4] it was 0.1 to 1 µM; in data set [5] it was 0.1 to 1 µM; in data set [6] it was 0.1 to 1 µM. The IC50 in data set [7] and in data set [8] was 0.1 to 1 µM in each case.
